Data as given in patent US8293769B2, “CSF-1R inhibitors, compositions, and methods of use” (Novartis AG, priority 2008, dated 2012).

Experiments:
[1] = biological target: T1, cytoplasmic domain of the human CSF-1R (Homo sapiens, UniProt P07333); experiment: In vitro kinase assay for CSF-1R (AlphaScreen); format: biochemical; conditions: tested at about 1 μM; read-out: CSF1RK 1 percent inhibition
T1 construct: Recombinant protein corresponding to the cytoplasmic domain of the human CSF-1R; purchased Invitrogen Corporation, Carlsbad, Calif; PV3249
T1 sequence (P07333 539-972 limits assumed): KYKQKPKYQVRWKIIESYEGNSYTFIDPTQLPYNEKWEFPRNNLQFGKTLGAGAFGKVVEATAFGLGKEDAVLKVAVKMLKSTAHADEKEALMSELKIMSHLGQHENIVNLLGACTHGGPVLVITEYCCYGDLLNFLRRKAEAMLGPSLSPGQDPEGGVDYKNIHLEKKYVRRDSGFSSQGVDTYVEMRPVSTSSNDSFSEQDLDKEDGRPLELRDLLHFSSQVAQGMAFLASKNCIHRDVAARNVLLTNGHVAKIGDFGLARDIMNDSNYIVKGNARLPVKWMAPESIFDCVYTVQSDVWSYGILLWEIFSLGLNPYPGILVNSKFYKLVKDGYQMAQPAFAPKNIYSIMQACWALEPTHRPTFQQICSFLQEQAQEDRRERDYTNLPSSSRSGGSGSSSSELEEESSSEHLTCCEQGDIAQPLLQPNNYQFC
In short: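 Recombinant CSF-1R cytoplasmic domain (4 nM) phosphorylated biotinylated peptide (0.05 μM) at 1.0 μM ATP in HEPES with Mg2+/Mn2+, 2 h at room temperature, compounds from 25 μM in 3-fold steps. AlphaScreen anti-phosphotyrosine PT66 detection; IC50 by non-linear regression.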

cKIT = biological target: T2, cKIT (Homo sapiens, UniProt P10721); experiment: cKIT kinase in vitro biochemical assay (alphascreen); conditions: tested at about 1 μM; read-out: CKIT percent inhibition
T2 construct: The kinase domain of cKIT was assayed in 50 mM Hepes; purchased Upstate 14-559
T2 sequence (P10721 589-937 limits assumed): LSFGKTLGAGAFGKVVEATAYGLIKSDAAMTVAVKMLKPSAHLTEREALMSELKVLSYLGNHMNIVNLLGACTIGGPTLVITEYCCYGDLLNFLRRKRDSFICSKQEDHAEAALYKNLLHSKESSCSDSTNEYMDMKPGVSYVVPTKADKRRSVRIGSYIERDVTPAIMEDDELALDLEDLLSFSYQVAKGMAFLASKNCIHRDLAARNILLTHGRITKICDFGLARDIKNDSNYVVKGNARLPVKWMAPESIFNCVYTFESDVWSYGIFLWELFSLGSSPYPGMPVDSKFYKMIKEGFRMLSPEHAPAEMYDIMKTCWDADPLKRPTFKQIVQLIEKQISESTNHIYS

PDGFRb = biological target: T3, PDGFRb (Homo sapiens, UniProt P09619); experiment: PDGFRb kinase in vitro biochemical assay (alphascreen); conditions: tested at about 1 μM; read-out: PDGF RK BETA percent inhibition
T3 construct: The kinase domain of PDGFRβ was assayed in 50 mM Hepes; purchased Invitrogen P3082
T3 sequence (P09619 600-962 limits assumed): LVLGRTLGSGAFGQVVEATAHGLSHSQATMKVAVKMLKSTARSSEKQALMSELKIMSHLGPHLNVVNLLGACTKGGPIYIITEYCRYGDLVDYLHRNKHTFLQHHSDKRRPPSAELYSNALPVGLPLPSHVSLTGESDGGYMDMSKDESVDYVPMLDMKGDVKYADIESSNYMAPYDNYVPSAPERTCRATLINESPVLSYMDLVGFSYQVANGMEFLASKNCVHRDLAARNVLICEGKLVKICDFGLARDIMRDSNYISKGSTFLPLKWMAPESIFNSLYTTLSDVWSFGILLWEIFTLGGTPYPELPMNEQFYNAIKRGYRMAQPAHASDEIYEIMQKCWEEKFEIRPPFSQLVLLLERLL

[2] = test system: MNFS60 (murine AML cells); experiment: Cell viability assay in MCSF dependent MNFS60 cells (Cell Titer Glo); format: cell-based; conditions: Mus musculus; tested at about 1 μM; MCSF 10 ng/mL, 72 hrs; read-out: CPEC50 MNFS60MCSF percent inhibition
In short: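 MNFS60 cells, 5,000 per well in RPMI-1640/10% FBS, grown with 10 ng/mL MCSF and 3-fold compound dilutions for 72 h at 37 °C. Viable cells measured by CellTiter-Glo luminescence, triplicates; EC50 fitted, with MCSF-free wells as 100% inhibition.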

[3] = biological target: T4, full-length human CSF-1R receptor (Homo sapiens, UniProt P07333); experiment: In vitro inhibition of CSF-1R receptor tyrosine phosphorylation in transfected HEK293H cells; format: cell-based; conditions: HEK293-H, tested at about 1 μM, 50 ng/mL MCSF, read-out: PCSF1R percent inhibition
T4 construct: transfected with the full-length human CSF-1R receptor cloned in house; expressed in transfected cells; host or cells: HEK293H (Invitrogen Cat. #11631017)
T4 sequence (P07333 20-972): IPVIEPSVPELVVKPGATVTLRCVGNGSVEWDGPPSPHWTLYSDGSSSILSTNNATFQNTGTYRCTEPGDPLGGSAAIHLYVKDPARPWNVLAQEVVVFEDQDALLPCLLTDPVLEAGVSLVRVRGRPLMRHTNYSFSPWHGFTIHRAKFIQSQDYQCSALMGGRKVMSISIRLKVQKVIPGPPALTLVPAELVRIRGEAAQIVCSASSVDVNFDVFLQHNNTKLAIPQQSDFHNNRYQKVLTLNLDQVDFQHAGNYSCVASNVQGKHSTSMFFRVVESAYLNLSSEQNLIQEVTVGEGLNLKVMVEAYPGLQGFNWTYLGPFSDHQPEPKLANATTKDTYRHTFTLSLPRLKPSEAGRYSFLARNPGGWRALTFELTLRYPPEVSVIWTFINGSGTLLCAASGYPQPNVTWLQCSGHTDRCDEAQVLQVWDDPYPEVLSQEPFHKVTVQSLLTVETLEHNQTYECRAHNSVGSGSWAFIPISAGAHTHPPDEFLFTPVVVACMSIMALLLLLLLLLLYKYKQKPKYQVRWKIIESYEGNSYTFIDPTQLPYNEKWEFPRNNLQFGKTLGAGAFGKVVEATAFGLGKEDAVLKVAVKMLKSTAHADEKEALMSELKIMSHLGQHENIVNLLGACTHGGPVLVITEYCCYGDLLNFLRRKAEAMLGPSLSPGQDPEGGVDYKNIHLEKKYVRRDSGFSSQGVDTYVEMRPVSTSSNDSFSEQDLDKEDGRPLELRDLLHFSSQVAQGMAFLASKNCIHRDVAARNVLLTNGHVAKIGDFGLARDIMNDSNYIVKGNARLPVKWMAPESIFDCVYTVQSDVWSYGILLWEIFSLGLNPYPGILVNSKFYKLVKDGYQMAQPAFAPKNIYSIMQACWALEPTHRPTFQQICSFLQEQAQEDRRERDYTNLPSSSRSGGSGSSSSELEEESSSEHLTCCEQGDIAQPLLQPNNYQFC
Procedure: To test the inhibition of CSF-1R receptor tyrosine phosphorylation, HEK293H purchased from Invitrogen Cat. #11631017 cells transfected with the full-length human CSF-1R receptor cloned in house into mammalian episomal transfection vector were incubated for 1 h with serial dilutions of compounds starting at 10 μM with 3 fold dilutions and then stimulated for 8 min with 50 ng/mL MCSF. After the supernatant was removed, the cells were lysed on ice with lysis buffer (150 mM NaCl, 20 mM Tris, pH 7.5, 1 mM EDTA, 1 mM EGTA, 1% Triton X-100 and NaF, protease and phosphatase inhibitors) and then shaken for 15-20 min at 4° C. The lysate was then transferred to total CSF-1R antibody coated 96-well plates that had already been blocked with 3% Blocker A from Mesoscale discovery (MSD) for 2 hours and washed afterwards. Lysates were incubated overnight at 4° C. and the plates were then washed 4× with MSD Tris Wash Buffer. The SULFO-TAG anti-pTyr antibody from MSD was diluted to 20 nM final in 1% Blocker A (MSD) solution and added to the washed plates and incubated for 1.5-2 h before addition of read buffer (MSD). The plates were read on the Sector 6000 instrument (MSD). Raw data was imported in Abase and EC50s calculated with XL-fit data analysis software.

Row | Compound | inhibition at 1 µM [1] | inhibition at 1 µM (cKIT) | inhibition at 1 µM (PDGFRb) | inhibition at 1 µM [3] | inhibition at 1 µM [2]
1 | O[C@@H]1CCCC[C@H]1Nc1nc2ccc(Oc3ccnc(-c4cccnc4)n3)cc2s1 [Compound 27, (1R,2R)-2-(6-(2-(pyridin-3-yl)pyrimidin-4-yloxy)benzo [d]thiazol-2-ylamino) cyclohexanol] | 100% | 20% | 8% | 78% | 54%
2 | C[C@H](Nc1nc2ccc(Oc3ccnc(-c4cccnc4)n3)cc2s1)C1CCCCC1 [Compound 31, (S)-N-(1-cyclohexylethyl)-6-(2-(pyridin-3-yl)pyrimidin-4-yloxy)benzo[d] thiazol-2-amine] | 100% | 29% | 6% | 59% | 58%
3 | C[C@H](Nc1nc2ccc(Oc3ccnc(-c4ccncc4)n3)cc2s1)C1CCCCC1 [Compound 32, (S)-N-(1-cyclohexylethyl)-6-(2-(pyridin-4-yl)pyrimidin-4-yloxy)benzo[d] thiazol-2-amine] | 100% | 30% | 14% | 70% | 58%
4 | CCN(CC)CCn1cc(-c2cncc(Oc3ccc4nc(N[C@@H]5CCCC[C@H]5O)sc4c3)c2)cn1 [Compound 81, (1R,2R)-2-(6-(5-(1-(2-(diethylamino)ethyl)-1H-pyrazol-4-yl)pyridin-3-yloxy)benzo[d]thiazol-2-ylamino)cyclohexanol] | 100% | 56% | 0% |  | 100%
5 | O[C@@H]1CCCC[C@H]1Nc1nc2ccc(Oc3cncc(C4=CCNCC4)c3)cc2s1 [Compound 85, (1R,2R)-2-(6-(5-(1,2,3,6-tetrahydropyridin-4-yl)pyridin-3-yloxy)benzo[d]thiazol-2-ylamino)cyclohexanol] | 96% | 13% | 2% |  | 13%
6 | O[C@@H]1CCCC[C@H]1Nc1nc2ccc(Oc3cncc(-c4cnn(CCN5CCOCC5)c4)n3)cc2s1 [Compound 95, (1R,2R)-2-(6-(6-(1-(2-morpholinoethyl)-1H-pyrazol-4-yl)pyrazin-2-yloxy)benzo[d]thiazol-2-ylamino)cyclohexanol] | 100% | 18% | 8% |  | 47%
7 | O[C@@H]1CCCC[C@H]1Nc1nc2ccc(Oc3cncc(-c4cccnc4)n3)cc2s1 [Compound 96, (1R,2R)-2-(6-(6-(pyridin-3-yl)pyrazin-2-yloxy)benzo[d]thiazol-2-ylamino) cyclohexanol] | 100% | 23% | 9% |  | 32%
8 | C[C@H](Nc1nc2ccc(Oc3ccc(NO)nc3)cc2s1)C1CCCCC1 [Compound 101, (S)—N-(1-cyclohexylethyl)-6-(6-(hydroxyamino)pyridin-3-yloxy)benzo[d]thiazol-2-amine] | 100% | 74% | 31% |  | 58%
9 | CN1CCN(c2ccc(-c3cc(Oc4ccc5nc(N[C@@H]6CCCC[C@H]6O)sc5c4)cnc3Cl)cn2)CC1 [Compound 103, (1R,2R)-2-(6-(2-chloro-6′-(4-methylpiperazin-1-yl)-3,3′-bipyridin-5-yloxy)benzo[d]thiazol-2-ylamino)cyclohexanol] | 100% | 14% | 9% |  | 35%
10 | O[C@@H]1CCCC[C@H]1Nc1nc2ccc(Oc3cccnc3)cc2s1 [Compound 110, (1R,2R)-2-(6-(pyridin-3-yloxy)benzo[d]thiazol-2-ylamino)cyclohexanol] | 100% | 10% | 14% |  | 54%

More lines, main results first:

Row | inhibition at 1 µM [1] | inhibition at 1 µM (cKIT) | inhibition at 1 µM (PDGFRb) | inhibition at 1 µM [3] | Compound | inhibition at 1 µM [2]
11 | 100% | 18% | 25% | 88% | O[C@@H]1CCCC[C@H]1Nc1nc2ccc(Oc3ccnc(-c4ccncc4)n3)cc2s1 [Compound 28, (1R,2R)-2-(6-(2-(pyridin-4-yl)pyrimidin-4-yloxy)benzo [d]thiazol-2-ylamino) cyclohexanol] | 67%
12 | 100% | 60% | 5% | 93% | O[C@@H]1CCCC[C@H]1Nc1nc2ccc(Oc3cncc(Br)c3)cc2s1 [Compound 45, (1R,2R)-2-(6-(5-bromopyridin-3-yloxy)benzo[d]thiazol-2-ylamino)cyclohexanol] | 96%
13 | 100% | 43% | 10% | 96% | Cn1nccc1-c1cncc(Oc2ccc3nc(N[C@@H]4CCCC[C@H]4O)sc3c2)c1 [Compound 56, (1R,2R)-2-(6-(5-(1-methyl-1H-pyrazol-5-yl)pyridin-3-yloxy)benzo[d]thiazol-2-ylamino)cyclohexanol] | 93%
14 | 100% | 45% | 0% | 96% | O[C@@H]1CCCC[C@H]1Nc1nc2ccc(Oc3cncc(-c4cccnc4)c3)cc2s1 [Compound 57, (1R,2R)-2-(6-(3,3′-bipyridin-5-yloxy)benzo[d]thiazol-2-ylamino)cyclohexanol] | 96%
15 | 100% | 52% | 3% | 95% | O[C@@H]1CCCC[C@H]1Nc1nc2ccc(Oc3cncc(-c4ccncc4)c3)cc2s1 [Compound 60, (1R,2R)-2-(6-(3,4′-bipyridin-5-yloxy)benzo[d]thiazol-2-ylamino)cyclohexanol] | 97%
16 | 100% | 35% | 14% | 80% | Nc1ncc(-c2cncc(Oc3ccc4nc(N[C@@H]5CCCC[C@H]5O)sc4c3)c2)cn1 [Compound 63, (1R,2R)-2-(6-(5-(2-aminopyrimidin-5-yl)pyridin-3-yloxy)benzo[d]thiazol-2-ylamino) cyclohexanol] | 61%
17 | 100% | 54% | 8% | 95% | O[C@@H]1CCCC[C@H]1Nc1nc2ccc(Oc3cncc(-c4ccc(F)cc4)c3)cc2s1 [Compound 64, (1R,2R)-2-(6-(5-(4-fluorophenyl)pyridin-3-yloxy)benzo [d]thiazol-2-ylamino) cyclohexanol] | 100%
18 | 100% | 40% | 9% | 96% | Cn1ccnc1-c1cncc(Oc2ccc3nc(N[C@@H]4CCCC[C@H]4O)sc3c2)c1 [Compound 66, (1R,2R)-2-(6-(5-(1-methyl-1H-imidazol-2-yl)pyridin-3-yloxy)benzo[d]thiazol-2-ylamino) cyclohexanol] | 90%
19 | 100% | 99% | 100% |  | O[C@@H]1CCCC[C@H]1Nc1nc2ccc(Oc3cncc(-c4cnccn4)c3)cc2s1 [Compound 84, (1R,2R)-2-(6-(5-(pyrazin-2-yl)pyridin-3-yloxy)benzo[d]thiazol-2-ylamnino) cyclohexanol] | 100%
